Molecules are shown by their SMILES. Like-named read-outs stand apart in the source and are kept apart here.

Test [1] deals with human colon carcinoma cells HCT-116/VM46. Kind of test: In vitro cytotoxicity (XTT assay), 72 h, HCT-116/VM46 multi-drug resistant cells. The test is classed as cell-based. Conditions: for IC50: Homo sapiens, read-out: IC50, drug concentration required to inhibit cell proliferation to 50% of untreated control.
Test [2] deals with human colon carcinoma cells HCT-116. Nature of the test: In vitro cytotoxicity (XTT assay), 72 h, HCT-116 human colon carcinoma cells. As to conditions: read-out: IC50, drug concentration required to inhibit cell proliferation to 50% of untreated control. The test is classed as cell-based.
Test [3] concerns advanced cases of ovarian, breast, and other cancers. As to conditions: NCI trials; cited from earlier work.
The mark [4] stands for this setting: HCT-116/VM46 vs HCT-116, value in parentheses, 4320 min.
[5] abbreviates: HCT-116/VM46 (teniposide-selected, multi-drug resistant), XTT, 72 h.

For the compound `CC(=O)O[C@@]12CO[C@@H]1C[C@H](O)[C@@]1(C)C(=O)[C@H](O)C3=C(C)[C@@H](OC(=O)[C@H](O)[C@@H](NC(=O)OC(C)(C)C)c4ccccc4)C[C@@](O)([C@@H](OC(=O)c4ccccc4)[C@H]21)C3(C)C` [taxotere, reference compound], in test [1] (setting [4]), the “fold resistance relative to HCT116 cells” value is listed as 53 fold. Besides, the IC50 in test [1] (setting [5]) was 213 nM; in test [2] (HCT-116, XTT, 72 h), 4 nM.

As to `CC(=O)O[C@H]1C(=O)[C@]2(C)CC[C@H]3OC[C@@]3(OC(C)=O)[C@H]2[C@H](OC(=O)c2ccccc2)[C@]2(O)C[C@H](OC(=O)[C@H](O)[C@@H](NC(=O)c3ccccc3)c3ccccc3)C(C)=C1C2(C)C` [Ib, 7-Deoxytaxol], the “fold resistance relative to HCT116 cells” value in test [1] (setting [4]) was determined as 14 fold. Besides, the IC50 in test [1] (setting [5]) is 55 nM; in test [2] (HCT-116, XTT, 72 h), 4 nM.

In the case of `CC(=O)O[C@H]1C(=O)[C@@]2(C)[C@H]([C@H](OC(=O)c3ccccc3)[C@]3(O)C[C@H](OC(=O)[C@H](O)[C@@H](NC(=O)c4ccccc4)c4ccccc4)C(C)=C1C3(C)C)[C@]1(OC(C)=O)CO[C@@H]1C[C@@H]2O` [Taxol], the IC50 in test [1] (HCT-116/VM46, 72 h) worked out at 440 nM; in test [2] (HCT-116, 72 h) it was 4 nM. The “fold resistance relative to HCT116 cells” value in test [1] (human, hct-116/vm46 vs hct-116, 4320 min) is listed as 124 fold. Also, in test [3], the “clinical results in advanced cancers (in words)” value was “promising results”.

For `CC(=O)O[C@H]1C(=O)[C@]2(C)CC[C@H]3OC[C@@]3(OC(C)=O)[C@H]2[C@H](OC(=O)c2ccccc2)[C@]2(O)C[C@H](OC(=O)[C@H](O)[C@@H](NC(=O)OC(C)(C)C)c3ccccc3)C(C)=C1C2(C)C` [Ia, N-Debenzoyl-N-t-butoxycarbonyl-7-deoxytaxol], in test [1] (setting [4]), the “fold resistance relative to HCT116 cells” value came to 3.5 fold. In addition, the IC50 in test [1] (setting [5]) was 7 nM; in test [2] (HCT-116, XTT, 72 h), 2 nM.

For `CC(=O)O[C@@]12CO[C@@H]1CC[C@@]1(C)C(=O)CC3=C(C)[C@@H](OC(=O)[C@H](O)[C@@H](NC(=O)c4ccccc4)c4ccccc4)C[C@@](O)([C@@H](OC(=O)c4ccccc4)[C@H]21)C3(C)C` [Id, 7-Deoxy-10-desacetyloxytaxol], the IC50 in test [2] (HCT-116, 72 h) worked out at 29 nM.

As to `CC(=O)O[C@@]12CO[C@@H]1CC[C@@]1(C)C(=O)CC3=C(C)[C@@H](OC(=O)[C@H](O)[C@@H](NC(=O)OC(C)(C)C)c4ccccc4)C[C@@](O)([C@@H](OC(=O)c4ccccc4)[C@H]21)C3(C)C` [Ic, N-Debenzoyl-N-t-butoxycarbonyl-7-deoxy-10-deoxy-10-desacetyloxytaxol], in test [2] (HCT-116, 72 h), the IC50 turned out to be 12 nM.

The values above are taken from patent US5478854A, “Deoxy taxols” (Bristol-Myers Squibb Company, priority 1994, dated 1995).
